Reference: ChEMBL document CHEMBL3124891, “Tetrahydroquinoline derivatives as potent and selective factor XIa inhibitors” (J Med Chem, 2014)
The source made the active and inactive calls. No cut-off for these calls is given here.

How the values were obtained:
Coagulation factor VII = molecular target: T1, Coagulation factor VII (Homo sapiens, UniProt P08709); assay: Binding affinity to human factor 7a assessed as release of p-nitroaniline after 10 to 120 mins by spectrophotometric analysis
T1 sequence (P08709 whole entry): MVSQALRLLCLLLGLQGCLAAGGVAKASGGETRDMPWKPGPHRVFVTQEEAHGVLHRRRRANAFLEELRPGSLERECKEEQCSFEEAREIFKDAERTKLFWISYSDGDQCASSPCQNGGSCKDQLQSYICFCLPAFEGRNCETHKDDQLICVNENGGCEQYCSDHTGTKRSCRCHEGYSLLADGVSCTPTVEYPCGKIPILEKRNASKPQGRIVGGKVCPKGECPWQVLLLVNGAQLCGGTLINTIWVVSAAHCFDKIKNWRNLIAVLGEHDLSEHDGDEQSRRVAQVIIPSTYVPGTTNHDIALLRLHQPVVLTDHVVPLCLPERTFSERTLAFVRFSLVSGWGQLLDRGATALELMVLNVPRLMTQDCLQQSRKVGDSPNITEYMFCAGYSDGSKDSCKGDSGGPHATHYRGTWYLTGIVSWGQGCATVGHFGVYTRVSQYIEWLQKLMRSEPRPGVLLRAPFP

Plasma [1] = assay: Anticoagulant activity in human plasma assessed as concentration required to double activated partial thromboplastin time; assay type: functional
[2] = molecular target: Vitamin K-dependent protein C (Homo sapiens, UniProt P04070); assay: Binding affinity to human activated protein C assessed as release of p-nitroaniline after 10 to 120 mins by spectrophotometric analysis
Sequence of Vitamin K-dependent protein C (P04070 43-197 limits assumed): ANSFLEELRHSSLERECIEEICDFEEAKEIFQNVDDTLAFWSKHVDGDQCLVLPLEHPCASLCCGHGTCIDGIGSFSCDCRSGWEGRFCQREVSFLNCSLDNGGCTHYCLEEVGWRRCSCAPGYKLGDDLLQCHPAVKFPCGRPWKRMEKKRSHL
Sequence of Vitamin K-dependent protein C (P04070 212-461 limits assumed): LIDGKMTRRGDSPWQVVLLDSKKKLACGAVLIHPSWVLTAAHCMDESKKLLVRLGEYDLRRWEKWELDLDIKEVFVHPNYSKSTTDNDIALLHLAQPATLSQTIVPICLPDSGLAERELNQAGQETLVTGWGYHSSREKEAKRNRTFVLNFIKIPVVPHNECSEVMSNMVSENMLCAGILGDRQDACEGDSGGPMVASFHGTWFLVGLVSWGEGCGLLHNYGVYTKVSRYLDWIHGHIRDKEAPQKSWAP

[3] = Binding affinity to New Zealand White rabbit plasma kallikrein assessed as release of p-nitroaniline after 10 to 120 mins by spectrophotometric analysis; assay type: cell-free, Oryctolagus cuniculus
Plasma [4] = assay: Anticoagulant activity in New Zealand White rabbit plasma assessed as concentration required to double activated partial thromboplastin time; assay type: functional, Oryctolagus cuniculus
[5] = molecular target: Tissue-type plasminogen activator (Homo sapiens, UniProt P00750); assay: Binding affinity to human tPA assessed as release of p-nitroaniline after 10 to 120 mins by spectrophotometric analysis
Sequence of Tissue-type plasminogen activator (P00750 whole entry): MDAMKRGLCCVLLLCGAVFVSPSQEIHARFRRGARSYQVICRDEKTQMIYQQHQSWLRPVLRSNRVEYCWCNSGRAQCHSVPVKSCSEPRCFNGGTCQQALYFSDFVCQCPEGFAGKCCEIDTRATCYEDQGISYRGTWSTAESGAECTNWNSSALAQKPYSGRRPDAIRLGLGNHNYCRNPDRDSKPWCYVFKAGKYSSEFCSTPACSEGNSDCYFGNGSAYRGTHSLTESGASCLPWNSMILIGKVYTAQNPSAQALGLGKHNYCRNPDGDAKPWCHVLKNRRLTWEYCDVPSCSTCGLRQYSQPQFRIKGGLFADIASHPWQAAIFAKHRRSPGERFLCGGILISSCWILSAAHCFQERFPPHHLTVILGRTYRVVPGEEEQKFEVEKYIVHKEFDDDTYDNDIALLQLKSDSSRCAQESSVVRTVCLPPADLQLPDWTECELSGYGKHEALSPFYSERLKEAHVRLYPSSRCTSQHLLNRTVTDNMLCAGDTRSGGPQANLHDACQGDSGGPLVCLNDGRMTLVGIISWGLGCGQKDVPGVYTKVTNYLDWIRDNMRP

Coagulation factor X [6] = molecular target: T2, Coagulation factor X (Oryctolagus cuniculus, UniProt O19045); assay: Binding affinity to New Zealand White rabbit factor 10a assessed as release of p-nitroaniline after 10 to 120 mins by spectrophotometric analysis
T2 sequence (O19045 whole entry): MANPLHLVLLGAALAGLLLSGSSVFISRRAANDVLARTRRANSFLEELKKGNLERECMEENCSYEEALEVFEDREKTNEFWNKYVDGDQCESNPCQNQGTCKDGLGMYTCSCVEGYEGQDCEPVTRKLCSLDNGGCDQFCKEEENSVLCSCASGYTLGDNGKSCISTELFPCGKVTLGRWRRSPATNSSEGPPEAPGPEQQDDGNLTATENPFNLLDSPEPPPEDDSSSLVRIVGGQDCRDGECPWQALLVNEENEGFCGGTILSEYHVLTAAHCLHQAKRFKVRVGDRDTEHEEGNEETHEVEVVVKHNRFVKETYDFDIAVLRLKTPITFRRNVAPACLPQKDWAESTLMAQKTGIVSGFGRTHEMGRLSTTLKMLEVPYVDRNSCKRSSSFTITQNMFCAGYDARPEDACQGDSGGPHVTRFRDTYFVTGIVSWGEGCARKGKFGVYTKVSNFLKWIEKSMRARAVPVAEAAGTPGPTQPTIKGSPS

[7] = Binding affinity to New Zealand White rabbit factor 7a assessed as release of p-nitroaniline after 10 to 120 mins by spectrophotometric analysis; set-up: species or system Oryctolagus cuniculus
[8] = molecular target: Urokinase-type plasminogen activator (Homo sapiens, UniProt P00749); assay: Binding affinity to human urokinase assessed as release of p-nitroaniline after 10 to 120 mins by spectrophotometric analysis
[9] = Binding affinity to New Zealand White rabbit thrombin assessed as release of p-nitroaniline after 10 to 120 mins by spectrophotometric analysis; set-up: species or system Oryctolagus cuniculus
Plasminogen = Plasminogen (Homo sapiens, UniProt P00747); assay: Binding affinity to human plasmin assessed as release of p-nitroaniline after 10 to 120 mins by spectrophotometric analysis
Sequence of Plasminogen (P00747 97-580 limits assumed): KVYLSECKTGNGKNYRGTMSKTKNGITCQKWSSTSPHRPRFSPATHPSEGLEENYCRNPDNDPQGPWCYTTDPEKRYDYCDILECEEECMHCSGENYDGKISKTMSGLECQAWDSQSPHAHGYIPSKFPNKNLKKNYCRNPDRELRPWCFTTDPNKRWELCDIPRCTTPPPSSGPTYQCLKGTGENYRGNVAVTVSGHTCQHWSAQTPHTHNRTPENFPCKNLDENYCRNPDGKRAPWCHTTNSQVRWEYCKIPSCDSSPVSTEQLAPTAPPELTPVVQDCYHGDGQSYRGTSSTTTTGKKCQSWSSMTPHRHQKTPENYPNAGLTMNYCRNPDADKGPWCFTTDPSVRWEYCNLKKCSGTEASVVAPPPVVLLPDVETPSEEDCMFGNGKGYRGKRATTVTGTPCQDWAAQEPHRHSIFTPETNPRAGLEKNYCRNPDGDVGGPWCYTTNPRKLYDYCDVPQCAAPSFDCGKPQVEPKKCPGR
Sequence of Plasminogen (P00747 581-810 limits assumed): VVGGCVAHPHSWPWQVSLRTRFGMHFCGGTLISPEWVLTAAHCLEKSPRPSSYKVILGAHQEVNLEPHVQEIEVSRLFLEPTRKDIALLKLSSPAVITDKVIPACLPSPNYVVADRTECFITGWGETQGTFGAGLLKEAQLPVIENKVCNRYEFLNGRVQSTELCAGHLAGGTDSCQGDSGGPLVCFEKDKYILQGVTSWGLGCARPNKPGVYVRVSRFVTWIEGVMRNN

Plasma kallikrein = Plasma kallikrein (Homo sapiens, UniProt P03952); assay: Binding affinity to human plasma kallikrein assessed as release of p-nitroaniline after 10 to 120 mins by spectrophotometric analysis
Sequence of Plasma kallikrein (P03952 20-390 limits assumed): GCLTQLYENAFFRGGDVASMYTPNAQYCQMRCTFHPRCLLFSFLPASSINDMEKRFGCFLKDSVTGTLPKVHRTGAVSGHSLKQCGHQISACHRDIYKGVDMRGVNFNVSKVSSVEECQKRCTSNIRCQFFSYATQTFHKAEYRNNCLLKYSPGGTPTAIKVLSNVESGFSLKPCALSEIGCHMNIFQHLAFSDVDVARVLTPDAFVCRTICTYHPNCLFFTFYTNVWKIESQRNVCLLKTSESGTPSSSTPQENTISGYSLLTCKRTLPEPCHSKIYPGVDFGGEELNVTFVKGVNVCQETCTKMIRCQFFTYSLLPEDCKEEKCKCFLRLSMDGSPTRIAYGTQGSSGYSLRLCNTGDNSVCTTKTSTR
Sequence of Plasma kallikrein (P03952 391-638 limits assumed): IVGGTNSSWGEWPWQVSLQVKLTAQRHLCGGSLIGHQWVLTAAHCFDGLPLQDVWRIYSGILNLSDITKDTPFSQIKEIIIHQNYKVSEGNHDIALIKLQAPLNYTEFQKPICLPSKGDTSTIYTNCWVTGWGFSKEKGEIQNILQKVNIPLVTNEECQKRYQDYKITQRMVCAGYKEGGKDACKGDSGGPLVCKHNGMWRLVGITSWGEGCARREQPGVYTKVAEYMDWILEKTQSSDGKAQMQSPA

[10] = Binding affinity to human chymotrypsin assessed as release of p-nitroaniline after 10 to 120 mins by spectrophotometric analysis
Prothrombin = Prothrombin (Homo sapiens, UniProt P00734); assay: Binding affinity to human thrombin assessed as release of p-nitroaniline after 10 to 120 mins by spectrophotometric analysis
Oryctolagus cuniculus [11] = assay: Toxicity in rabbit arteriovenous-shunt thrombosis model assessed as increase in bleeding time compound administered as single bolus dose followed by five continuous infusion dose; assay type: organism-based; settings: in vivo, iv
Coagulation factor X [12] = molecular target: Coagulation factor X (Homo sapiens, UniProt P00742); assay: Binding affinity to human factor 10a assessed as release of p-nitroaniline after 10 to 120 mins by spectrophotometric analysis
Sequence of Coagulation factor X (Homo sapiens, UniProt P00742) (P00742 41-179 limits assumed): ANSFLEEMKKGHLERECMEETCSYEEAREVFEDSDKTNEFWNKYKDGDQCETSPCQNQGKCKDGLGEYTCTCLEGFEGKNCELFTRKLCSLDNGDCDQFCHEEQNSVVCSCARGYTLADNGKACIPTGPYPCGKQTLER
Sequence of Coagulation factor X (Homo sapiens, UniProt P00742) (P00742 235-488 limits assumed): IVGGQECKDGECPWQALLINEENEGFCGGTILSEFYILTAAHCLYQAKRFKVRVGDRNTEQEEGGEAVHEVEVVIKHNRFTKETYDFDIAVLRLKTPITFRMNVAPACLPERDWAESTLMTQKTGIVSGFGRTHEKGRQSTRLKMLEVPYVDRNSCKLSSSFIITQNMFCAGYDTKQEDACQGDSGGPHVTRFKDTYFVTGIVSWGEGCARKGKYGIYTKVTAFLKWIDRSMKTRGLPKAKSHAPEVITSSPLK

Coagulation factor XI [13] = molecular target: T3, Coagulation factor XI (Homo sapiens, UniProt P03951); assay: Binding affinity to human factor 11a assessed as release of p-nitroaniline after 10 to 120 mins by spectrophotometric analysis
T3 sequence (P03951 19-387 limits assumed): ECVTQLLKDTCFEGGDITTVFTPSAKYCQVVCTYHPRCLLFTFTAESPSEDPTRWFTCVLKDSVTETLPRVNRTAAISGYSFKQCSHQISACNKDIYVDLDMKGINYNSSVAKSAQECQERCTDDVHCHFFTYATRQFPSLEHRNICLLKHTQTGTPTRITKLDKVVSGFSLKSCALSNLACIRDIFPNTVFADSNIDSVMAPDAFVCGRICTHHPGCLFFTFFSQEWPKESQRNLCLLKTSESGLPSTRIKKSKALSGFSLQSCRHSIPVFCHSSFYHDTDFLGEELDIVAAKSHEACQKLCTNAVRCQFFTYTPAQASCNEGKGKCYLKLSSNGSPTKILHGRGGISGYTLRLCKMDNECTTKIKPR
T3 sequence (P03951 388-625 limits assumed): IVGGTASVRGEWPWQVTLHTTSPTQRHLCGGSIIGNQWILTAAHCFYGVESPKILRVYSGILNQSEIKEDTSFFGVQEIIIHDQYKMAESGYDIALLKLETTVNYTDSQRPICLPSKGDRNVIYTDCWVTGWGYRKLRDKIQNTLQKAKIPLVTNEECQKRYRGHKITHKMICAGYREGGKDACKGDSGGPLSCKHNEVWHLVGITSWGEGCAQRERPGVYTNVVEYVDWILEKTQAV

Plasma [14] = assay: Anticoagulant activity in human plasma assessed as concentration required to inhibit double prothrombin time; assay type: functional
Trypsin = Trypsin (Homo sapiens, UniProt P07477+P07478+P35030); assay: Binding affinity to human trypsin assessed as release of p-nitroaniline after 10 to 120 mins by spectrophotometric analysis; assay type: protein assay
[15] = Binding affinity to New Zealand White rabbit factor 11a assessed as release of p-nitroaniline after 10 to 120 mins by spectrophotometric analysis; set-up: species or system Oryctolagus cuniculus
Oryctolagus cuniculus [16] = assay: Antithrombotic activity in rabbit arteriovenous-shunt thrombosis model assessed as inhibition of clot formation compound administered as single bolus dose followed by five continuous infusion dose; assay type: functional
Coagulation factor IX = Coagulation factor IX (Homo sapiens, UniProt P00740); assay: Binding affinity to human factor 9a assessed as release of p-nitroaniline after 10 to 120 mins by spectrophotometric analysis
Sequence of Coagulation factor IX (P00740 47-191 limits assumed): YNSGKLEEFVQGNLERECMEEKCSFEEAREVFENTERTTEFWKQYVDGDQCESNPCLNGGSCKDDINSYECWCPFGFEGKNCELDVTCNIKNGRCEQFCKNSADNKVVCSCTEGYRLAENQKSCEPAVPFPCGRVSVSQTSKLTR
Sequence of Coagulation factor IX (P00740 227-461 limits assumed): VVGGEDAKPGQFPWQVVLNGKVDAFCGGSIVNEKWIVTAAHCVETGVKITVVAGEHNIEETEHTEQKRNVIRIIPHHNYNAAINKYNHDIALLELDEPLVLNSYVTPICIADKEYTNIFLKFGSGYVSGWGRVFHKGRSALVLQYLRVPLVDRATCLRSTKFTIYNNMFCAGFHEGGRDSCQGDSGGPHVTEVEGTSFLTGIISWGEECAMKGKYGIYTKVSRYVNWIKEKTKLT

Coagulation factor XI [17] = molecular target: T3, Coagulation factor XI; assay: Mixed-type inhibition of human factor 11a
Coagulation factor XI [18] = molecular target: T3, Coagulation factor XI; assay: Competitive inhibition of human factor 11a assessed as release of p-nitroaniline after 10 to 120 mins by Michaelis-Menten equation analysis

CC(C)CC(=O)Nc1cc(-c2ccc(C(N)=O)cc2C(=O)O)cc(C2CC(C)(c3ccccc3)c3cc(C(=N)N)ccc3N2)c1 (single isomer, unassigned; enantiomer 2) [listing 1 of 2 here]
Ki (Coagulation factor VII): 629 nM | EC (Plasma [1]): 2.2 µM | Ki [2]: 73 nM | Ki [3]: 4.6 nM | EC (Plasma [4]): 2400 nM | Ki [5]: 1700 nM | Ki (Coagulation factor X [6]): 3200 nM | Ki [7]: 200 nM | Ki [8]: 2100 nM | Ki [9]: 7900 nM | Ki (Plasminogen): 910 nM | Ki (Plasma kallikrein): 4.6 nM | Ki [10]: 14000 nM | Ki (Prothrombin): 12600 nM | Activity (Oryctolagus cuniculus [11]): Non-toxic | Ki (Coagulation factor X [12]): 340 nM | Ki (Coagulation factor XI [13]): 0.2 nM | IC (Plasma [14]): >20 µM | Ki (Trypsin): 740 nM | Ki [15]: 0.42 nM | ID50 (Oryctolagus cuniculus [16]): 0.95 mg/kg/h | Ki (Coagulation factor IX): > 20000 nM

CC(C)CC(=O)Nc1cc(-c2ccc(C(N)=O)cc2C(=O)O)cc(C2CC(C)(c3ccccc3)c3cc(C(=N)N)ccc3N2)c1 (single isomer, unassigned; enantiomer 2) [listing 2 of 2 here]
inhibition (Coagulation factor XI [17]): Active | inhibition (Coagulation factor XI [18]): Active | inhibition (Oryctolagus cuniculus [16]): Dose-dependent effect
